System: retinal cells expressing the inhibitory hM4Di DREADD
Experiment: Electroretinography (ERG) after CNO in rats expressing hM4Di DREADD in retina
Type: in vivo

Q: For `C[N+]1([O-])CCN(C2=Nc3cc(Cl)ccc3Nc3ccccc32)CC1` [CNO, clozapine N-oxide], which ERG wave (CNO by intraperitoneal injection, 20 minutes after, rats with AAV-hSyn-hM4Di (FIG. 2C)) is on record?
A: inhibition of the ERG wave

Q: What about the “ERG, function in retinal cells” value (CNO eye drops, 10 minutes and 20 minutes after, rats with AAV-hSyn-hM4Di (FIG. 2D)) of the same compound?
A: decreased function in retinal cells at both timepoints

Q: And the “eliciting DREADD function, eye drops versus systemic delivery” value (ERG, CNO via eye drops compared with systemic delivery)?
A: at least as successful
